{"source": "patent US20260207483A1", "about": "“PHARMACEUTICAL CO[…] FOR THE TREATMENT OF OPHTHALMIC CONDITIONS” (Adtech Pharma, Inc., priority 2022, published 2026)", "key": {"[1]": {"experiment": "Solubility of nabilone in water and common solvents (USP classification)", "assay_type": "physicochemical", "text": "Nabilone is difficult to solubilize in most solvents such that preparing a liquid composition comprising nabilone is very challenging. […] These solvents are not suitable for use in human pharmaceutical formulations."}, "[2]": {"experiment": "Solubility of nabilone in sesame oil", "assay_type": "physicochemical", "conditions": "5% w/w of nabilone in sesame oil; for Nabilone recovered from oil phase (w/w in mg/mL): 250 mg/g added", "text": "It is also challenging to solubilize nabilone in pharmaceutically acceptable oils, even at elevated temperatures."}}, "data": [{"compound": "CCCCCCC(C)(C)c1cc(O)c2c(c1)OC(C)(C)C1CCC(=O)CC21", "note": "(centres unmarked) [Nabilone]", "values": [{"measurement": "USP Classification of solubility", "setting": "[1]; 1,4-Dioxane", "value": "Freely Soluble"}, {"measurement": "USP Classification of solubility", "setting": "[1]; 2-Methyltetrahydrofuran", "value": "Freely Soluble"}, {"measurement": "USP Classification of solubility", "setting": "[1]; Acetone", "value": "Freely Soluble"}, {"measurement": "USP Classification of solubility", "setting": "[1]; Dichloromethane", "value": "Freely Soluble"}, {"measurement": "USP Classification of solubility", "setting": "[1]; Dimethoxyethane", "value": "Freely Soluble"}, {"measurement": "USP Classification of solubility", "setting": "[1]; Dimethyl sulfoxide", "value": "Freely Soluble"}, {"measurement": "USP Classification of solubility", "setting": "[1]; Dimethylformamide", "value": "Freely Soluble"}, {"measurement": "USP Classification of solubility", "setting": "[1]; Methyl ethyl ketone", "value": "Freely Soluble"}, {"measurement": "USP Classification of solubility", "setting": "[1]; Tetrahydrofuran", "value": "Freely Soluble"}, {"measurement": "USP Classification of solubility", "setting": "[1]; p-Xylene", "value": "Freely Soluble"}, {"measurement": "Solubility in water (USP classification)", "setting": "[1]; water at any pH", "value": "insoluble"}, {"measurement": "Observation After Centrifuge (14000 rpm, 10 minutes)", "setting": "[2]; not heated", "value": "Clear solution"}, {"measurement": "Observation Before Centrifuge", "setting": "[2]; not heated", "value": "Turbid"}, {"measurement": "Nabilone recovered from oil phase (w/w in mg/mL)", "setting": "[2]; not heated", "value": 3.9, "unit": "mg/mL"}, {"measurement": "Observation After Centrifuge (14000 rpm, 10 minutes)", "setting": "[2]; heated to 90° C. for 3 hours", "value": "Clear solution"}, {"measurement": "Observation Before Centrifuge", "setting": "[2]; heated to 90° C. for 3 hours", "value": "Turbid"}, {"measurement": "Nabilone recovered from oil phase (w/w in mg/mL)", "setting": "[2]; heated to 90° C. for 3 hours", "value": 6.3, "unit": "mg/mL"}]}]}
